# Measured values as given in ChEMBL document CHEMBL3885861, “Open TG-GATES”.
# Species: Rattus norvegicus
# Assay: Open TG-GATES - Regimen: Daily Repeat
# Format: toxicity, organism-based, Sprague-Dawley
# Parameters: regimen Daily Repeat, gender Male, age 6 weeks
# Conditions: in vivo, po, 0 mg/kg, route gavage, dose level Control; for APTT / Bas / Eos / Fbg / Hb / Ht / Lym / MCH / MCHC / MCV / Mono / Neu / PT / Plat / RBC / Ret / WBC: tissue Blood; for KIDNEY_L / KIDNEY_R / KIDNEY_TOTAL: tissue Kidney; for LIVER: tissue Liver; for A/G / ALP / ALT / AST / BUN / CRE / Ca / Cl / DBIL / GLC / IP / K / LDH / Na / PL / RALB / TBIL / TC / TG / TP / gamma-GTP: tissue Plasma
compound,measurement,setting,value
Nc1c2c(nc3ccccc13)CCCC2 [TACRINE],TERMINAL_BW,"72 h, time 3 day",222.7 g
same,APTT,"72 h, time 3 day",21.1 s
same,Bas,"72 h, time 3 day",0%
same,Eos,"72 h, time 3 day",1.2%
same,Fbg,"72 h, time 3 day",304 mg/dL
same,Hb,"72 h, time 3 day",13.6 g/dL
same,Ht,"72 h, time 3 day",38.7%
same,Lym,"72 h, time 3 day",80%
same,MCH,"72 h, time 3 day",21.1 pg
same,MCHC,"72 h, time 3 day",35%
same,MCV,"72 h, time 3 day",60.4 fL
same,Mono,"72 h, time 3 day",3%
same,Neu,"72 h, time 3 day",14.8%
same,PT,"72 h, time 3 day",16.8 s
same,Plat,"72 h, time 3 day",125.8 x10_4/uL
same,RBC,"72 h, time 3 day",641.8 x10_4/ul
same,Ret,"72 h, time 3 day",6.4%
same,WBC,"72 h, time 3 day",108.4 x10_2/uL
same,KIDNEY_L,"72 h, time 3 day",0.9 g
same,KIDNEY_R,"72 h, time 3 day",1 g
same,KIDNEY_TOTAL,"72 h, time 3 day",1.9 g
same,LIVER,"72 h, time 3 day",10.2 g
same,A/G,"72 h, time 3 day",1.3
same,ALP,"72 h, time 3 day",1665.8 IU/L
same,ALT,"72 h, time 3 day",51.6 IU/L
same,AST,"72 h, time 3 day",79 IU/L
same,BUN,"72 h, time 3 day",17.4 mg/dL
same,CRE,"72 h, time 3 day",0.2 mg/dL
same,Ca,"72 h, time 3 day",10.9 mg/dL
same,Cl,"72 h, time 3 day",107.2 meq/L
same,DBIL,"72 h, time 3 day",0.002 mg/dL
same,GLC,"72 h, time 3 day",200.2 mg/dL
same,IP,"72 h, time 3 day",7.4 mg/dL
same,K,"72 h, time 3 day",4.4 meq/L
same,LDH,"72 h, time 3 day",264 IU/L
same,Na,"72 h, time 3 day",142.8 meq/L
same,PL,"72 h, time 3 day",158.4 mg/dL
same,RALB,"72 h, time 3 day",3.1 g/dL
same,TBIL,"72 h, time 3 day",0.01 mg/dL
same,TC,"72 h, time 3 day",72.8 mg/dL
same,TG,"72 h, time 3 day",132.8 mg/dL
same,TP,"72 h, time 3 day",5.6 g/dL
same,gamma-GTP,"72 h, time 3 day",1 IU/L
same,TERMINAL_BW,"[…], time 7 day",252.2 g
same,TERMINAL_BW,"[…], time 14 day",300.3 g
same,TERMINAL_BW,"[…], time 28 day",378.9 g
same,APTT,"[…], time 7 day",21.6 s
same,Bas,"[…], time 7 day",0%
same,Eos,"[…], time 7 day",1%
same,Fbg,"[…], time 7 day",289 mg/dL
same,Hb,"[…], time 7 day",13.5 g/dL
same,Ht,"[…], time 7 day",38.4%
same,Lym,"[…], time 7 day",85%
same,MCH,"[…], time 7 day",21.2 pg
same,MCHC,"[…], time 7 day",35.2%
same,MCV,"[…], time 7 day",60.1 fL
same,Mono,"[…], time 7 day",2.2%
same,Neu,"[…], time 7 day",11%
same,PT,"[…], time 7 day",16.3 s
same,Plat,"[…], time 7 day",122.6 x10_4/uL
same,RBC,"[…], time 7 day",639.4 x10_4/ul
same,Ret,"[…], time 7 day",5.5%
same,WBC,"[…], time 7 day",142.5 x10_2/uL
same,APTT,"[…], time 14 day",23 s
same,Bas,"[…], time 14 day",0%
same,Eos,"[…], time 14 day",0.8%
same,Fbg,"[…], time 14 day",323 mg/dL
same,Hb,"[…], time 14 day",15.4 g/dL
same,Ht,"[…], time 14 day",42.9%
same,Lym,"[…], time 14 day",79.6%
same,MCH,"[…], time 14 day",21.2 pg
same,MCHC,"[…], time 14 day",36%
same,MCV,"[…], time 14 day",58.8 fL
same,Mono,"[…], time 14 day",2.6%
same,Neu,"[…], time 14 day",16.4%
same,PT,"[…], time 14 day",15.6 s
same,Plat,"[…], time 14 day",117.8 x10_4/uL
same,RBC,"[…], time 14 day",728.8 x10_4/ul
same,Ret,"[…], time 14 day",4%
same,WBC,"[…], time 14 day",91.1 x10_2/uL
same,APTT,"[…], time 28 day",23.1 s
same,Bas,"[…], time 28 day",0%
same,Eos,"[…], time 28 day",1%
same,Fbg,"[…], time 28 day",321 mg/dL
same,Hb,"[…], time 28 day",15.6 g/dL
same,Ht,"[…], time 28 day",41.5%
same,Lym,"[…], time 28 day",83.4%
same,MCH,"[…], time 28 day",20.8 pg
same,MCHC,"[…], time 28 day",37.6%
same,MCV,"[…], time 28 day",55.3 fL
same,Mono,"[…], time 28 day",1.6%
same,Neu,"[…], time 28 day",13%
same,PT,"[…], time 28 day",16 s
same,Plat,"[…], time 28 day",115 x10_4/uL
same,RBC,"[…], time 28 day",752 x10_4/ul
same,Ret,"[…], time 28 day",2.9%
same,WBC,"[…], time 28 day",108.3 x10_2/uL
same,KIDNEY_L,"[…], time 7 day",1.1 g
same,KIDNEY_R,"[…], time 7 day",1.1 g
same,KIDNEY_TOTAL,"[…], time 7 day",2.1 g
same,KIDNEY_L,"[…], time 14 day",1.2 g
same,KIDNEY_R,"[…], time 14 day",1.2 g
same,KIDNEY_TOTAL,"[…], time 14 day",2.3 g
same,KIDNEY_L,"[…], time 28 day",1.4 g
same,KIDNEY_R,"[…], time 28 day",1.4 g
same,KIDNEY_TOTAL,"[…], time 28 day",2.9 g
same,LIVER,"[…], time 7 day",11.2 g
same,LIVER,"[…], time 14 day",12.4 g
same,LIVER,"[…], time 28 day",15.5 g
same,A/G,"[…], time 7 day",1.2
same,ALP,"[…], time 7 day",1508 IU/L
same,ALT,"[…], time 7 day",36 IU/L
same,AST,"[…], time 7 day",67.6 IU/L
same,BUN,"[…], time 7 day",16.8 mg/dL
same,CRE,"[…], time 7 day",0.2 mg/dL
same,Ca,"[…], time 7 day",10.5 mg/dL
same,Cl,"[…], time 7 day",107.4 meq/L
same,DBIL,"[…], time 7 day",0 mg/dL
same,GLC,"[…], time 7 day",191.6 mg/dL
same,IP,"[…], time 7 day",7.1 mg/dL
same,K,"[…], time 7 day",4.2 meq/L
same,LDH,"[…], time 7 day",172.8 IU/L
same,Na,"[…], time 7 day",142 meq/L
same,PL,"[…], time 7 day",153.8 mg/dL
same,RALB,"[…], time 7 day",2.9 g/dL
same,TBIL,"[…], time 7 day",0.016 mg/dL
same,TC,"[…], time 7 day",77.6 mg/dL
same,TG,"[…], time 7 day",110 mg/dL
same,TP,"[…], time 7 day",5.4 g/dL
same,gamma-GTP,"[…], time 7 day",1 IU/L
same,A/G,"[…], time 14 day",1.3
same,ALP,"[…], time 14 day",1565.4 IU/L
same,ALT,"[…], time 14 day",40 IU/L
same,AST,"[…], time 14 day",72 IU/L
same,BUN,"[…], time 14 day",20.6 mg/dL
same,CRE,"[…], time 14 day",0.2 mg/dL
same,Ca,"[…], time 14 day",10.7 mg/dL
same,Cl,"[…], time 14 day",108 meq/L
same,DBIL,"[…], time 14 day",0 mg/dL
same,GLC,"[…], time 14 day",192.8 mg/dL
same,IP,"[…], time 14 day",6.3 mg/dL
same,K,"[…], time 14 day",4.1 meq/L
same,LDH,"[…], time 14 day",184.8 IU/L
same,Na,"[…], time 14 day",142.2 meq/L
same,PL,"[…], time 14 day",161.6 mg/dL
same,RALB,"[…], time 14 day",3.3 g/dL
same,TBIL,"[…], time 14 day",0.012 mg/dL
same,TC,"[…], time 14 day",81.8 mg/dL
same,TG,"[…], time 14 day",123.4 mg/dL
same,TP,"[…], time 14 day",6 g/dL
same,gamma-GTP,"[…], time 14 day",1.2 IU/L
same,A/G,"[…], time 28 day",1.1
same,ALP,"[…], time 28 day",1179.4 IU/L
same,ALT,"[…], time 28 day",38.6 IU/L
same,AST,"[…], time 28 day",61.6 IU/L
same,BUN,"[…], time 28 day",18.6 mg/dL
same,CRE,"[…], time 28 day",0.2 mg/dL
same,Ca,"[…], time 28 day",10.7 mg/dL
same,Cl,"[…], time 28 day",105.2 meq/L
same,DBIL,"[…], time 28 day",0 mg/dL
same,GLC,"[…], time 28 day",191.8 mg/dL
same,IP,"[…], time 28 day",5.9 mg/dL
same,K,"[…], time 28 day",4.1 meq/L
same,LDH,"[…], time 28 day",165.2 IU/L
same,Na,"[…], time 28 day",141.6 meq/L
same,PL,"[…], time 28 day",157.6 mg/dL
same,RALB,"[…], time 28 day",3.2 g/dL
same,TBIL,"[…], time 28 day",0.006 mg/dL
same,TC,"[…], time 28 day",75.4 mg/dL
same,TG,"[…], time 28 day",144.6 mg/dL
same,TP,"[…], time 28 day",6.2 g/dL
same,gamma-GTP,"[…], time 28 day",1 IU/L
